Where “and” joins values, the source holds several entries; their conditions need not be identical. Identical values can stand only once. Ends that are not written are not given here.
Tests used:
[1] = Stability in simulated gastric fluid (SGF); type: in vitro ADME; settings: SGF pH 1.3
Procedure: When developing any potentially oral-route pharmaceutical agent, the denaturing and pepsin-rich environment of the stomach must be considered. The stability of HM-10/10 was tested in simulated gastric fluid (SGF) and simulated intestinal fluid (SIF) over 120 min. […] Samples were tested at 2 μM.
For the HM-10/10 stability assay in simulated gastric and intestinal fluids, propantheline was used to confirm retention time and carbutamide was used as the internal standard for calculations.

[2] = Metabolic stability in cynomolgus monkey liver microsomes; type: in vitro ADME; settings: for CLint scaled: cynomolgus monkey, microsomes, Cynomolgus monkey liver microsomes 0.5 mg protein/mL, 2 μM
[3] = Metabolic stability in cryopreserved Sprague-Dawley rat hepatocytes; type: in vitro ADME; settings: Sprague-Dawley rat hepatocytes 0.5 million cells/mL; for CLint scaled: rat, hepatocytes, 2 μM
[4] = Protein binding in human plasma (ultracentrifugation); type: in vitro ADME; settings: pH 7.4, Human plasma (K2EDTA)
human plasma proteins = experiment: as above; type: in vitro ADME; settings: Human plasma (K2EDTA); 2 μM; 2.5 h at 37 °C
CYP3A4 [5] = biological target: CYP3A4 (Homo sapiens, UniProt P08684); experiment: CYP450 time-dependent inhibition, CYP3A4 (midazolam and testosterone substrates), pooled human liver microsomes; type: in vitro ADME
CYP3A4 [6] = experiment: CYP3A4 induction (enzyme activity) in single-donor human hepatocytes; type: in vitro ADME; settings: for Fold Increase (Enzyme Activity) Mean: mean of three lots
[7] = Test article stability over 24 h incubation with hepatocytes in the induction assay; type: in vitro ADME, human; settings: average of three lots, both days
Procedure: For each 24 h incubation, 50 µL of each medium containing the test article (HM-10/10) were collected at the start (T0) and end of 24 h incubation (T24) and quenched with 300 µL of 1% perchloric acid in methanol and 50 µL of internal standard cocktail (carbutamide, chrysin, and glyburide each at 1.71 µg/mL water). These samples were analyzed to test the stability of HM-10/10 after 24 h incubation with the hepatocytes. The quenched sample plates were stored covered in a −20 °C freezer.

CYP1A2 = biological target: T1, CYP1A2 (Homo sapiens, UniProt P05177); settings: microsomes
T1 sequence (P05177 1-516): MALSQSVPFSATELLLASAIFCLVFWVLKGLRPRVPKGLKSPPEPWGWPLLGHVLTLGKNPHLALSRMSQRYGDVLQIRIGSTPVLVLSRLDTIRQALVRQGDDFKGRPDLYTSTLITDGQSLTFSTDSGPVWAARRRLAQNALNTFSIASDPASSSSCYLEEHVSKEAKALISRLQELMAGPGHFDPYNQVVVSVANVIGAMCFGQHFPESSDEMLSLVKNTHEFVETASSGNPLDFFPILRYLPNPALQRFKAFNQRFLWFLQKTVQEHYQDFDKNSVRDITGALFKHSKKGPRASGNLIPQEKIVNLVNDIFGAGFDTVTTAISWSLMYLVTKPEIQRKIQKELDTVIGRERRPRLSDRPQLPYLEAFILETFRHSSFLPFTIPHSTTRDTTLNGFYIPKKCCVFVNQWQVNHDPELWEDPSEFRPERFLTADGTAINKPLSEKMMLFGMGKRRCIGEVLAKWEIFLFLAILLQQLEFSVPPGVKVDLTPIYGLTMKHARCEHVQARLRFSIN

in vitro [8] = settings: human, plasma, pH 7.4
Procedure: (§1) The supernatant was removed and incubated at 37 °C for at least 10 min before use. The pH of each matrix was checked and adjusted to pH 7.4 using 10% phosphoric acid or 1 N sodium hydroxide as necessary.
(§2) Test and control article stock solutions were spiked (1.5 µL) into matrix (0.749 mL) to a final assay concentration of 2 µM and mixed. […] These tubes were sealed and incubated at 37 °C with shaking.
(§3) The quenched samples were mixed briefly by vortexing and stored in a −20 °C freezer.
(§4) Sample plates were stored refrigerated until analysis.
(§5) The column was set to a temperature of 55 °C. […] The instrument was equipped with an electrospray ionization source (500 °C) operated in positive-ion mode.
(§6) Peak area ratios for IS-normalized test article and control article counts were used to calculate the percent remaining relative to the time zero (T0) value. As appropriate, results were plotted and further analyzed to calculate half-life (T1/2) values.
(§7) Mean peak ratios were used to calculate the percent remaining relative to the T0 value: % Remaining at Timex = (mean peak area ratio Tx/mean peak ratio T0) × 100.

in vitro [9] = settings: cynomolgus monkey, plasma, pH 7.4
Procedure: as §1, §2, §3, §4, §5, §6, §7

[10] = Protein binding in CD-1 mouse plasma (ultracentrifugation); settings: CD-1, mouse, plasma (K2EDTA)
[11] = test system: CD-1 mouse plasma proteins; experiment: as above; settings: CD-1 mouse plasma (K2EDTA); 2 μM; 2.5 h at 37 °C
[12] = Protein binding in beagle dog plasma (ultracentrifugation); settings: beagle, dog, plasma (K2EDTA), pH 7.4
[13] = test system: beagle dog plasma proteins; experiment: as above; settings: Beagle dog plasma (K2EDTA); 2 μM; 2.5 h at 37 °C
[14] = read-out: CLint (L/hr/kg) (converted)

CYP3A4 (Homo sapiens, UniProt P08684), sequence (P08684 whole entry): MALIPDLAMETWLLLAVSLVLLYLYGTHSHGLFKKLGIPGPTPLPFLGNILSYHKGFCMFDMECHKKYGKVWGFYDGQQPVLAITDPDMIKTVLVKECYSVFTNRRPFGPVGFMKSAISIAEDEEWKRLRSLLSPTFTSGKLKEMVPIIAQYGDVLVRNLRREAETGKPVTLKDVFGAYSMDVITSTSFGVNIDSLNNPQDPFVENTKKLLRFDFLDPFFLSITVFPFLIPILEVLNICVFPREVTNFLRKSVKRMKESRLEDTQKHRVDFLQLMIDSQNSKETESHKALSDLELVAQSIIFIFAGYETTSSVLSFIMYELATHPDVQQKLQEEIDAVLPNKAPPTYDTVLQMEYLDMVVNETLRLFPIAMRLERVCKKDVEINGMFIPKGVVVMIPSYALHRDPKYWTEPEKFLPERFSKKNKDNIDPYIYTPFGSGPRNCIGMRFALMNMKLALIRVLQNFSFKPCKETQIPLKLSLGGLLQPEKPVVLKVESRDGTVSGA

Sequence: LRKLRKRLLRLVGRQLEEFL [HM-10/10, LRKLRKRLLRLVGRQLEEFL]
- half-life at 2 µM [1]: 372 min
- CLint scaled [2, 14]: 5.15 L/h/kg
- CLint scaled ([2]; read-out: CLint (mL/min/kg)): 5.15 L/h/kg
- half-life at 2 µM ([2]; pooled liver microsomes, pH 7.4, Cynomolgus monkey liver microsomes 0.5 mg protein/mL): 21.8 min
- remaining at 2 h, 2 µM ([2]; pooled liver microsomes, pH 7.4, Cynomolgus monkey liver microsomes 0.5 mg protein/mL, read-out: % Remaining at 120 min): 0.8%
- half-life at 2 µM ([3]; cryopreserved hepatocytes): 5.81 min
- remaining at 0.5 h, 2 µM ([3]; cryopreserved hepatocytes, read-out: % Remaining at 30 min): 1%
- CLint scaled [3, 14]: 75.4 L/h/kg
- CLint scaled ([3]; read-out: CLint (mL/min/kg)): 75.6 L/h/kg
- remaining at 2.5 h, 2 µM ([4]; 37 °C, read-out: % Stability in Matrix (2.5 h)): 88.5%
- fraction unbound at 2.5 h, 2 µM ([4]; 2.5 h at 37 °C, read-out: Fu (Unbound Fraction) Mean ± SD): 0.203 ± 0.055
- % Protein Bound Mean ± SD (human plasma proteins): 79.7% and 79.7 ± 5.5%
- % Protein Free Mean ± SD (human plasma proteins): 20.3 ± 5.5%
- % Inhibition at 50 µM No PI + NADPH (CYP3A4 [5]; Midazolam (3A4)): 6.6%
- % Inhibition at 50 µM No PI − NADPH (CYP3A4 [5]; Midazolam (3A4)): 19.2%
- % Inhibition at 50 µM PI + NADPH (CYP3A4 [5]; Midazolam (3A4)): 13.9%
- % Inhibition at 50 µM PI − NADPH (CYP3A4 [5]; Midazolam (3A4)): 29.5%
- % Inhibition at 50 µM No PI + NADPH (CYP3A4 [5]; Testosterone (3A4)): 6.9%
- % Inhibition at 50 µM No PI − NADPH (CYP3A4 [5]; Testosterone (3A4)): −0.7%
- % Inhibition at 50 µM PI + NADPH (CYP3A4 [5]; Testosterone (3A4)): 11.3%
- % Inhibition at 50 µM PI − NADPH (CYP3A4 [5]; Testosterone (3A4)): 32.2%
- Fold Increase (Enzyme Activity) Lot HH1086 (CYP3A4 [6]; 2 µM): 2.06 fold
- Fold Increase (Enzyme Activity) Lot HH1142 (CYP3A4 [6]; 2 µM): 1.59 fold
- Fold Increase (Enzyme Activity) Lot HH1144 (CYP3A4 [6]; 2 µM): 1.35 fold
- Fold Increase (Enzyme Activity) Mean (CYP3A4 [6]; 2 µM): 1.67 fold
- Fold Increase (Enzyme Activity) Lot HH1086 (CYP3A4 [6]; 10 µM): 2.20 fold
- Fold Increase (Enzyme Activity) Lot HH1142 (CYP3A4 [6]; 10 µM): 2.12 fold
- Fold Increase (Enzyme Activity) Lot HH1144 (CYP3A4 [6]; 10 µM): 1.83 fold
- Fold Increase (Enzyme Activity) Mean (CYP3A4 [6]; 10 µM): 2.05 fold
- Fold Increase (Enzyme Activity) Lot HH1086 (CYP3A4 [6]; 25 µM): 2.07 fold
- Fold Increase (Enzyme Activity) Lot HH1142 (CYP3A4 [6]; 25 µM): 2.19 fold
- Fold Increase (Enzyme Activity) Lot HH1144 (CYP3A4 [6]; 25 µM): 2.15 fold
- Fold Increase (Enzyme Activity) Mean (CYP3A4 [6]; 25 µM): 2.14 fold
- Average % Stability ([7]; 10 µM): 0.7%
- remaining at 24 h, 2 µM ([7]; human, plated human hepatocytes, three single-donor lots, 2 µM): 0.6%
- remaining at 24 h, 25 µM ([7]; human, plated human hepatocytes, three single-donor lots, 25 µM): 0.3%
- % Inhibition at 50 µM No PI + NADPH (CYP1A2): −18.0%
- % Inhibition at 50 µM No PI − NADPH (CYP1A2): −20.7%
- % Inhibition at 50 µM PI + NADPH (CYP1A2): 0.1%
- % Inhibition at 50 µM PI − NADPH (CYP1A2): −15.8%
- half-life at 2 µM (in vitro [8]): 164 min
- remaining at 2 h, 2 µM (in vitro [8]): 64.5%
- half-life at 2 µM (in vitro [9]): 52.7 min
- remaining at 2 h, 2 µM (in vitro [9]): 21.9%
- remaining at 2.5 h, 2 µM ([10]; pH 7.4): 14.6%
- fraction unbound at 2.5 h, 2 µM ([10]; pH 7.4, Fu (Unbound Fraction) Mean ± SD, CD-1 mouse plasma (K2EDTA), 2 μM, 2.5 h at 37 °C): 0.847 ± 0.246
- % Protein Bound Mean ± SD [11]: 15.3% and 15.3 ± 24.6%
- % Protein Free Mean ± SD [11]: 84.7 ± 24.6%
- fraction unbound at 2.5 h, 2 µM [12]: 0.648 ± 0.265
- remaining at 2.5 h, 2 µM [12]: 29.2%
- % Protein Bound Mean ± SD [13]: 35.2 ± 26.5%
- % Protein Free Mean ± SD [13]: 64.8 ± 26.5%
